Source: ChEMBL document CHEMBL3044631, “Synthesis of 2-[4,5-dimethyl-1-(phenylamino)-1H-imidazol-2-ylthio]-N-(thiazole-2-yl)acetamide derivatives and their anticancer activities” (2013)

Legend:
Assay type in all cases: functional
UACC-257 = assay: Anticancer activity against Homo sapiens (human) UACC257 cells assessed as cell growth promotion at 10 uM after 48 hr by SRB assay
T47D = assay: Anticancer activity against Homo sapiens (human) T47D cells assessed as cell growth promotion at 10 uM after 48 hr by SRB assay
BT-549 = assay: Anticancer activity against Homo sapiens (human) BT549 cells assessed as cell growth promotion at 10 uM after 48 hr by SRB assay
Hs-578T = assay: Anticancer activity against Homo sapiens (human) Hs 578T cells assessed as cell growth promotion at 10 uM after 48 hr by SRB assay
MDA-MB-231 = assay: Anticancer activity against Homo sapiens (human) MDA-MB-231/ATCC cells assessed as cell growth promotion at 10 uM after 48 hr by SRB assay
MCF7 = assay: Anticancer activity against Homo sapiens (human) MCF7 cells assessed as cell growth promotion at 10 uM after 48 hr by SRB assay
PC-3 = assay: Anticancer activity against Homo sapiens (human) PC3 cells assessed as cell growth promotion at 10 uM after 48 hr by SRB assay
DU-145 = assay: Anticancer activity against Homo sapiens (human) DU145 cells assessed as cell growth promotion at 10 uM after 48 hr by SRB assay
UO-31 = assay: Anticancer activity against Homo sapiens (human) UO31 cells assessed as cell growth promotion at 10 uM after 48 hr by SRB assay
TK-10 = assay: Anticancer activity against Homo sapiens (human) TK10 cells assessed as cell growth promotion at 10 uM after 48 hr by SRB assay
CAKI-1 = assay: Anticancer activity against Homo sapiens (human) CAKI-1 cells assessed as cell growth promotion at 10 uM after 48 hr by SRB assay
786-0 = assay: Anticancer activity against Homo sapiens (human) 786-0 cells assessed as cell growth promotion at 10 uM after 48 hr by SRB assay
SK-OV-3 = assay: Anticancer activity against Homo sapiens (human) SKOV3 cells assessed as cell growth promotion at 10 uM after 48 hr by SRB assay
OVCAR-8 = assay: Anticancer activity against Homo sapiens (human) OVCAR8 cells assessed as cell growth promotion at 10 uM after 48 hr by SRB assay
OVCAR-5 = assay: Anticancer activity against Homo sapiens (human) OVCAR5 cells assessed as cell growth promotion at 10 uM after 48 hr by SRB assay
OVCAR-4 = assay: Anticancer activity against Homo sapiens (human) OVCAR4 cells assessed as cell growth promotion at 10 uM after 48 hr by SRB assay
OVCAR-3 = assay: Anticancer activity against Homo sapiens (human) OVCAR3 cells assessed as cell growth promotion at 10 uM after 48 hr by SRB assay
HCT-15 = assay: Anticancer activity against Homo sapiens (human) HCT15 cells assessed as cell growth promotion at 10 uM after 48 hr by SRB assay
COLO 205 = assay: Anticancer activity against Homo sapiens (human) COLO205 cells assessed as cell growth promotion at 10 uM after 48 hr by SRB assay
NCI-H522 = assay: Anticancer activity against Homo sapiens (human) NCI-H522 cells assessed as cell growth promotion at 10 uM after 48 hr by SRB assay
NCI-H322M = assay: Anticancer activity against Homo sapiens (human) NCI-H322M cells assessed as cell growth promotion at 10 uM after 48 hr by SRB assay
NCI-H23 = assay: Anticancer activity against Homo sapiens (human) NCI-H23 cells assessed as cell growth promotion at 10 uM after 48 hr by SRB assay
HOP-92 = assay: Anticancer activity against Homo sapiens (human) HOP92 cells assessed as cell growth promotion at 10 uM after 48 hr by SRB assay
EKVX = assay: Anticancer activity against Homo sapiens (human) EKVX cells assessed as cell growth promotion at 10 uM after 48 hr by SRB assay
SR = assay: Anticancer activity against Homo sapiens (human) SR cells assessed as cell growth promotion at 10 uM after 48 hr by SRB assay
RPMI-8226 = assay: Anticancer activity against Homo sapiens (human) RPMI8226 cells assessed as cell growth promotion at 10 uM after 48 hr by SRB assay
K562 = assay: Anticancer activity against Homo sapiens (human) K562 cells assessed as cell growth promotion at 10 uM after 48 hr by SRB assay
SK-MEL-2 = assay: Anticancer activity against Homo sapiens (human) SK-MEL-2 cells assessed as cell growth promotion at 10 uM after 48 hr by SRB assay
MDA-MB-435 = assay: Anticancer activity against Homo sapiens (human) MDA-MB-435 cells assessed as cell growth promotion at 10 uM after 48 hr by SRB assay
M14 = assay: Anticancer activity against Homo sapiens (human) M14 cells assessed as cell growth promotion at 10 uM after 48 hr by SRB assay
Malme-3M = assay: Anticancer activity against Homo sapiens (human) MALME-3M cells assessed as cell growth promotion at 10 uM after 48 hr by SRB assay
LOX IMVI = assay: Anticancer activity against Homo sapiens (human) LOXIMVI cells assessed as cell growth promotion at 10 uM after 48 hr by SRB assay
U-251 = assay: Anticancer activity against Homo sapiens (human) U251 cells assessed as cell growth promotion at 10 uM after 48 hr by SRB assay
SNB-19 = assay: Anticancer activity against Homo sapiens (human) SNB19 cells assessed as cell growth promotion at 10 uM after 48 hr by SRB assay
SF-539 = assay: Anticancer activity against Homo sapiens (human) SF539 cells assessed as cell growth promotion at 10 uM after 48 hr by SRB assay
SF-268 = assay: Anticancer activity against Homo sapiens (human) SF268 cells assessed as cell growth promotion at 10 uM after 48 hr by SRB assay
SW-620 = assay: Anticancer activity against Homo sapiens (human) SW620 cells assessed as cell growth promotion at 10 uM after 48 hr by SRB assay
HT-29 = assay: Anticancer activity against Homo sapiens (human) HT-29 cells assessed as cell growth promotion at 10 uM after 48 hr by SRB assay
KM12 = assay: Anticancer activity against Homo sapiens (human) KM12 cells assessed as cell growth promotion at 10 uM after 48 hr by SRB assay
NCI-H460 = assay: Anticancer activity against Homo sapiens (human) NCI-H460 cells assessed as cell growth promotion at 10 uM after 48 hr by SRB assay

Row | Structure (SMILES) | Activity (UACC-257) | Activity (T47D) | Activity (BT-549) | Activity (Hs-578T) | Activity (MDA-MB-231) | Activity (MCF7) | Activity (PC-3) | Activity (DU-145) | Activity (UO-31) | Activity (TK-10) | Activity (CAKI-1) | Activity (786-0) | Activity (SK-OV-3) | Activity (OVCAR-8) | Activity (OVCAR-5) | Activity (OVCAR-4) | Activity (OVCAR-3) | Activity (HCT-15) | Activity (COLO 205) | Activity (NCI-H522) | other results
1 | COc1ccc(Nn2c(SCC(=O)Nc3nc(-c4ccc(Cl)cc4)cs3)nc(C)c2C)cc1 | 48.91% | 39.43% | 53.32% | 86.14% | 79.71% | 16.16% | 35.69% | 79.62% | 39.41% | 68.5% | 34.44% | 59.54% | 81.45% | 43.88% | 111.33% | 30.81% | 60.75% | 59.76% | 79.56% | 66.22% | Activity (NCI-H322M): 111.9%; Activity (NCI-H23): 31.88%; Activity (HOP-92): 38.65%; Activity (EKVX): 41.94%; Activity (SR): 40.3%; Activity (RPMI-8226): 35.7%; Activity (K562): 26.88%; Activity (SK-MEL-2): 90.48%; Activity (MDA-MB-435): 50.36%; Activity (M14): 62.46%; Activity (Malme-3M): 99.15%; Activity (LOX IMVI): 38.91%; Activity (U-251): 43.51%; Activity (SNB-19): 79.24%; Activity (SF-539): 79.14%; Activity (SF-268): 66.13%; Activity (SW-620): 75.2%; Activity (HT-29): 30.12%; Activity (KM12): 43.08%; Activity (NCI-H460): 39.32%
2 | Cc1nc(SCC(=O)Nc2nc(-c3ccc(Cl)cc3)cs2)n(Nc2ccccc2)c1C | 46.91% | 26.64% | 54% | 70.58% | 48.83% | 27.14% | 59.13% | 65.41% | 32.86% | 56.83% | 36.74% | 54.27% | 68.56% | 31.91% | 65.75% | 35.93% | 61.29% | 57.63% | 65.21% | 47.28% | Activity (NCI-H322M): 70.81%; Activity (NCI-H23): 12.2%; Activity (EKVX): 34.55%; Activity (SR): 12.66%; Activity (K562): 27.56%; Activity (SK-MEL-2): 84.99%; Activity (MDA-MB-435): 41%; Activity (M14): 47.55%; Activity (Malme-3M): 99.3%; Activity (LOX IMVI): 26.08%; Activity (U-251): 36.61%; Activity (SNB-19): 59.64%; Activity (SF-539): 35.42%; Activity (SF-268): 56.4%; Activity (SW-620): 73.1%; Activity (HT-29): 25.29%; Activity (KM12): 57.14%; Activity (NCI-H460): 52.96%
3 | Cc1nc(SCC(=O)Nc2nccs2)n(Nc2ccc(Cl)cc2)c1C | 107.66% | 91.74% | 111.12% | 121.05% | 98.69% | 104.33% | 103.63% | 122.72% | 86.43% | 120.55% | 101.14% | 111.66% | 102.45% | 104.9% | 87.36% | 102.19% | 117.12% | 102.77% | 121.19% | 111.97% | Activity (NCI-H322M): 131.8%; Activity (NCI-H23): 109.41%; Activity (HOP-92): 96.74%; Activity (EKVX): 123.2%; Activity (SR): 120.95%; Activity (RPMI-8226): 104.54%; Activity (K562): 112.86%; Activity (SK-MEL-2): 116.11%; Activity (MDA-MB-435): 110.71%; Activity (M14): 97.83%; Activity (Malme-3M): 140.83%; Activity (LOX IMVI): 101.8%; Activity (U-251): 108.53%; Activity (SNB-19): 121.25%; Activity (SF-539): 90.1%; Activity (SF-268): 112.74%; Activity (SW-620): 123.41%; Activity (HT-29): 108.32%; Activity (KM12): 113.75%; Activity (NCI-H460): 106%
4 | Cc1ccc(Nn2c(SCC(=O)Nc3nc(-c4ccccc4)cs3)nc(C)c2C)cc1 | 54.08% | 6.48% | 63.51% | 105.97% | 46% | 24.07% | 71.8% | 83.4% | 51.58% | 72.7% | 53.6% | 82.27% | 69.62% | 55.49% | 81.8% | 25.36% | 78.47% | 67.18% | 32.48% | 49.7% | Activity (NCI-H322M): 96.01%; Activity (NCI-H23): 39.38%; Activity (HOP-92): 59.94%; Activity (EKVX): 49.68%; Activity (SR): 72.64%; Activity (RPMI-8226): 55.78%; Activity (K562): 37.67%; Activity (SK-MEL-2): 81.38%; Activity (MDA-MB-435): 76.71%; Activity (M14): 76.97%; Activity (Malme-3M): 92.03%; Activity (LOX IMVI): 51.93%; Activity (U-251): 49.3%; Activity (SNB-19): 74.35%; Activity (SF-539): 73.68%; Activity (SF-268): 81.68%; Activity (SW-620): 98.8%; Activity (HT-29): 56.13%; Activity (KM12): 82.85%; Activity (NCI-H460): 78.13%
